# Test results reported in BindingDB's records for doi:10.1016/s0960-894x(98)00670-2 (Vertex Pharmaceuticals, 1999).
# Molecular target: T1, Gag-Pol polyprotein [489-587] (Human immunodeficiency virus 1, UniProt P04585)
# T1 construct: 489-587
# Assay: ChEBML_157552
# Experimental: Compound was assayed for inhibition against HIV protease activity
compound,measurement,value
COc1ccc(S(=O)(=O)N(CC2CCCC2)C[C@@H](O)CN(CCc2ccccc2)C(=O)OCc2cccnc2)cc1 [{(S)-3-[Cyclopentylmethyl-(4-methoxy-benzenesulfonyl)-amino]-2-hydroxy-propyl}-phenethyl-carbamic acid pyridin-3-ylmethyl ester],Ki,17 nM
